The text below walks through data of US6596778B1, “β-endorphin peptides for treating muscle-wasting diseases” (The University of Birmingham, priority 1997, dated 2003).

Assay [1] concerns mouse diaphragm muscle. Briefly: Contractions of hemidiaphragm in response to nerve stimulation in the presence of neostigmine sulphate. The assay is classed as cell-based, mice, C57BL/6j strain. The conditions noted are these: neostigmine sulphate 10^−5 M, peptide 10^−7 M; mean ± S.E.M. The protocol: (§1) Adult female mice, 3-4 months of age, of the C57BL/6j strain were killed by cervical dislocation and the skin and musculature around the rib cage were removed. The diaphragm and part of the rib cage were carefully dissected out along with a length of the left phrenic nerve. The left hemidiaphragm (together with the left phrenic nerve stump) was pinned out in an organ bath containing oxygenated Krebs solution which was gassed continuously with 95% O2-5% CO2 at room temperature (approximately 20° C.) as described in Khan, S.; Smith, M. E., Muscle Nerve, 18, 1250-1256; 1995. The central tendon was attached with the aid of a silk thread to a force transducer (Dynamometer, model UF1), and the phrenic nerve was introduced into the end of a suction electrode for indirect stimulation.
The phrenic nerve was stimulated continuously at a low frequency (0.5 Hz) with supramaximum square wave pulses of 0.2 msec width using a dual channel stimulator (Digitimer D4030). The muscle was allowed to equilibrate until the responses of the stimulated muscle had reached a constant amplitude (approximately 20 min). Krebs solution ([…]), or a solution ([…]) of the appropriate peptide, was added to the centre of the organ bath whilst the contractions were being recorded. […]

In assay [2] the test system is mouse diaphragm muscle. Briefly: Contractions of hemidiaphragm in response to direct stimulation of the muscle in the presence of d-tubocurarine. The assay is classed as cell-based, mice, C57BL/6j strain. Conditions: peptide 2.5×10^−8 M, mean ± S.E.M. The procedure:
as §1
Direct stimulation of the muscle was effected by two stainless steel needle electrodes placed near the centre of the hemidiaphragm. The position of the force transducer was adjusted until a constant resting tension was seen. When direct stimulation of the muscle was employed d-tubocurarine chloride (2.5×10^−6M) was included in the bathing medium to block the acetylcholine (ACh) receptors and prevent indirect stimulation of the muscles via the motor nerve terminals. […] The amplitude, time to peak and half relaxation time of the contractions developed in response to indirect and direct stimulation were determined. The half-relaxation time of the contractions was expressed as the time taken for the tension to decline from the maximum amplitude to half maximum. The dose-response curves were analyzed using a Kaloidograph software package to determine the values for EC50 and maximum response. The significance of the results was determined, unless otherwise stated, using ANOVA, with treatment as the grouping factor, followed by the Bonferroni-Dunn post hoc test. […]

Assay [3] concerns mouse diaphragm muscle. The assay is classed as cell-based, mice, C57BL/6j strain. The conditions noted are these: for blockade of the agonist's/peptide's effect on contractile responses by BNTX (d1-opioid antagonist): BNTX 2.5×10^−7 M; for blockade of the agonist's/peptide's effect on contractile responses by BNTX (d1-opioid antagonist) / blockade of the agonist's/peptide's effect on contractile responses by NTB (d2-opioid antagonist): agonist/peptide 2.5×10^−7 M; for blockade of the agonist's/peptide's effect on contractile responses by NTB (d2-opioid antagonist): NTB 2.5×10^−7 M; for blockade of the peptide's effect on contractile responses by naloxone: naloxone 2.5×10^−6 M; for blockade of the peptide's effect on contractile responses by naloxone / 1/2 relaxation time / Time to peak: peptide 2.5×10^−7 M; for 1/2 relaxation time / Time to peak: low frequency indirect stimulation, mean ± S.E.M. The protocol: as §1
The phrenic nerve was stimulated continuously at a low frequency (0.5 Hz) with supramaximum square wave pulses of 0.2 msec width using a dual channel stimulator (Digitimer D4030). The muscle was allowed to equilibrate until the responses of the stimulated muscle had reached a constant amplitude (approximately 20 min). Krebs solution ([…]), or a solution ([…]) of the appropriate peptide, was added to the centre of the organ bath whilst the contractions were being recorded.
Direct stimulation of the muscle was effected by two stainless steel needle electrodes placed near the centre of the hemidiaphragm. The position of the force transducer was adjusted until a constant resting tension was seen. When direct stimulation of the muscle was employed d-tubocurarine chloride (2.5×10^−6M) was included in the bathing medium to block the acetylcholine (ACh) receptors and prevent indirect stimulation of the muscles via the motor nerve terminals. The phrenic nerve was stimulated continuously at 0.5 Hz, d-tubocurarine was added to the organ bath, and then, when the responses to nerve stimulation had ceased, the muscle was subjected to continuous direct supramaximum stimulation at a frequency of 0.5 Hz. […] The amplitude, time to peak and half relaxation time of the contractions developed in response to indirect and direct stimulation were determined. The half-relaxation time of the contractions was expressed as the time taken for the tension to decline from the maximum amplitude to half maximum. The dose-response curves were analyzed using a Kaloidograph software package to determine the values for EC50 and maximum response. The significance of the results was determined, unless otherwise stated, using ANOVA, with treatment as the grouping factor, followed by the Bonferroni-Dunn post hoc test.

The test system of assay [4] is CPK leakage into the blood. The conditions noted are these: intravenous injection of β-endorphin alone; cited from earlier work.
Assay [5] deals with dystrophic mice. Briefly: Chronic intravenous injection in dystrophic mice (body weight, EDL muscle weight, CPK in blood and muscle). The class given is in vivo. The protocol: In one series of experiments, the C-terminal peptide, glycylglutamine, was injected intravenously into the blood of dystrophic mice 4 to 5 times a week in an amount of approximately 1.5 microgram/g body weight each time over a seven week period. Control mice were injected with the same volume of saline at the same times. There were six mice in each group.
The following measurements were made:
1. Change in body weight (the dystrophic mice would usually not gain significant weight over seven weeks and might even lose weight-depending on their age).
2. Weight of the extensor digitorum longus (EDL) muscle.
3. Level of CPK in the blood (a diagnostic test for muscular dystrophy is to measure the level of CPK in the blood. In muscle diseases, the blood levels of enzymes such as CPK are elevated and in muscular dystrophy the levels can be very high).
4. CPK enzyme levels in the muscle.

[6] abbreviates: indirect stimulation 0.5 Hz, mean ± SEM.

Where a SMILES comes first, the peptide text is derived from it. Where no end group is shown, it is not given here. [ ]: non-standard residue; d: D form. Sar = CNCC(=O)O

Consider “Ac-K[dK][Sar]E [β-endorphin28-31 analogue]”, for which the “tension developed in the presence of neostigmine sulphate” value in assay [1] is 103.4±1.0%. Further, the “tension developed, % of the control values (absence of added peptide)” value in assay [2] stood at 100±1.1%. Further, in assay [3], the “blockade of the agonist's/peptide's effect on contractile responses by BNTX (d1-opioid antagonist)” value is given as “Neither naloxone, BNTX, nor NTB blocked”; the “blockade of the agonist's/peptide's effect on contractile responses by NTB (d2-opioid antagonist)” value (from here on “blockade … (d2-opioid antagonist)”) is on record as “Neither naloxone, BNTX, nor NTB blocked”; the “blockade of the peptide's effect on contractile responses by naloxone” value (from here on “blockade of the peptide's effect”) was “Neither naloxone, BNTX, nor NTB blocked”; the 1/2 relaxation time is 102.8 ± 2.6 percentage of the untreated controls. Further, the Time to peak in assay [3] was 95.9 ± 0.3 percentage of the untreated controls. For the same compound, in assay [3] (indirect stimulation), the “duration of the effect on amplitude after addition of the peptide” value is “at least 6 minutes” and the “lowest concentration at which significant increases in contractile responses were seen” value is on record as 10^−10 M. For the same compound, in assay [3] (indirect stimulation 0.5 Hz), the “effect on the amplitude of the contractions (in words)” value (“effect on the amplitude” for short) is “immediate increase”. The “maximum increase in the response” value in assay [3] (setting [6]) worked out at 16.7±0.9%.

Take `CC[C@H](C)[C@H](NC(=O)[C@H](C)NC(=O)[C@H](CC(N)=O)NC(=O)[C@H](CCCCN)NC(=O)[C@H](Cc1ccccc1)NC(=O)[C@H](CC(C)C)NC(=O)[C@@H](NC(=O)[C@@H](NC(=O)[C@H](CC(C)C)NC(=O)[C@@H]1CCCN1C(=O)[C@@H](NC(=O)[C@H](CCC(N)=O)NC(=O)[C@H](CO)NC(=O)[C@H](CCCCN)NC(=O)[C@H](CCC(=O)O)NC(=O)[C@H](CO)NC(=O)[C@@H](NC(=O)[C@H](CCSC)NC(=O)[C@H](Cc1ccccc1)NC(=O)CNC(=O)CNC(=O)[C@@H](N)Cc1ccc(O)cc1)[C@@H](C)O)[C@@H](C)O)C(C)C)[C@@H](C)O)C(=O)N[C@H](C(=O)N[C@@H](CCCCN)C(=O)N[C@@H](CC(N)=O)C(=O)N[C@@H](C)C(=O)N[C@@H](Cc1ccc(O)cc1)C(=O)N[C@@H](CCCCN)C(=O)N[C@@H](CCCCN)C(=O)NCC(=O)N[C@@H](CCC(=O)O)C(=O)O)[C@@H](C)CC` [β-endorphin]: the “effect in preventing CPK leakage into the blood” value in assay [4] is reported as “little effect”. Further, in assay [3], the “blockade … (d2-opioid antagonist)” value is “neither”, the “blockade of the peptide's effect” value is reported as “complete blockade”, the 1/2 relaxation time is 99.6 ± 0.3 percentage of the untreated controls and the Time to peak is 94.1 ± 0.5 percentage of the untreated controls. Moreover, in assay [3] (indirect stimulation 0.5 Hz), the “effect on the amplitude” value was “immediate increase”. The “maximum increase in the response” value in assay [3] (setting [6]) amounted to 34.4±2.9%.

As to “β-Endorphin 1-16 (YGGFMTSEKSQTPLVT; Beta-endorphin; UniProt P01189 237-252, looked up, fragment) [β-endorphin fragment (α-endorphin)]”, in assay [3] (indirect stimulation 0.5 Hz), the “effect on the amplitude” value was “no significant effect”. The “tension developed, % of the control tension” value in assay [3] (peptide 10^−6 M, indirect stimulation) amounted to 102.0±0.2%.

With “N-Acetyl β-endorphin (Ac-YGGFMTSEKSQTPLVTLFKNAIIKNAYKKGE; UniProt P01189 237-267, looked up)”, the “effect on the amplitude” value in assay [3] (indirect stimulation 0.5 Hz) was “no significant effect”. Also, the “responses in the presence of the peptide” value in assay [3] (three preparations, concentration not given, mean ± SEM) worked out at 101.5±0.7%.

`N[C@@H](CCC(=O)O)C(=O)O` [L-glutamic acid]: the “effect on the amplitude” value in assay [3] (indirect stimulation 0.5 Hz) is “no effect”.

As to `CC(C)[C@H](NC(=O)[C@H](CCC(=O)O)NC(=O)[C@H](Cc1ccccc1)NC(=O)[C@@H](C)NC(=O)[C@@H](N)Cc1ccc(O)cc1)C(=O)N[C@H](C(=O)NCC(N)=O)C(C)C` [deltorphin II], in assay [3] (indirect stimulation 0.5 Hz, room temperature, read-out: EC50 for increase in contractile response), the EC50 is 0.2 nM.

Take `NCC(=O)N[C@@H](CCC(N)=O)C(=O)O` [glycylglutamine, glycyl-L-glutamine] (H-Gly-Gln-OH): the “increase in body weight” value in assay [5] (i.v. approximately 1.5 microgram/g 4 to 5 times a week, seven week period, statistically significant) is recorded as “approximately 12%”. Besides, the “reduction of CPK level in the blood” value in assay [5] (i.v. approximately 1.5 microgram/g 4 to 5 times a week, seven weeks) is given as 25%. Also, in assay [5] (i.v. approximately 1.5 microgram/g 4 to 5 times a week, seven weeks, not statistically significant), the “increase in EDL muscle weight” value is reported as “approximately 5%”. The “increase of enzyme (CPK) concentration in the EDL muscle” value in assay [5] (seven weeks, calculated on a wet weight basis) is 55%. In addition, the “tension developed, % of the control values (absence of added peptide)” value in assay [2] is recorded as 98.7±0.9%. In assay [3], the “blockade of the agonist's/peptide's effect on contractile responses by BNTX (d1-opioid antagonist)” value is given as “Neither naloxone, BNTX, nor NTB blocked”; the “blockade … (d2-opioid antagonist)” value is recorded as “Neither naloxone, BNTX, nor NTB blocked”; the “blockade of the peptide's effect” value was “Neither naloxone, BNTX, nor NTB blocked”. In addition, the “lowest concentration at which significant increases in contractile responses were seen” value in assay [3] (indirect stimulation) is listed as 10^−10 M. Further, in assay [3] (indirect stimulation 0.5 Hz), the “effect on the amplitude” value is reported as “immediate increase”. In assay [3] (setting [6]), the “maximum increase in the response” value was 18.5±1.5%.

As to “β-endorphin1-27 (YGGFMTSEKSQTPLVTLFKNAIIKNAY; Beta-endorphin; UniProt P01189 237-263, looked up, fragment)”, the “tension developed in the presence of neostigmine sulphate” value in assay [1] came out at 102.3±1.2%. Besides, the “tension developed, % of the control values (absence of added peptide)” value in assay [2] was found to be 99.6±0.5%. In assay [3], the “blockade … (d2-opioid antagonist)” value is given as “neither”, the “blockade of the peptide's effect” value is reported as “had no effect on the amplitude of the contractions”, the 1/2 relaxation time was 99.4 ± 0.4 percentage of the untreated controls and the Time to peak was 98.1 ± 0.4 percentage of the untreated controls. For the same compound, in assay [3] (indirect stimulation 0.5 Hz), the “effect on the amplitude” value is “immediate increase”. Moreover, the “maximum increase in the response” value in assay [3] (setting [6]) is “not maximum even at 10^−6 M”.
